Laboratory results as given in paper PMC12040169 (PLOS Biology, 2025).

Test: in vitro
Settings: human, hela cells, % viability

In order of rising viability at 28.5 h, 10 µM:
1. O=c1c2[nH]cc(-c3ccccc3)c2ncn1CCc1ccccc1 [CBK288025]  76.9%
2. Cn1nc(C(C)(C)C)cc1C(=O)N1CCC(N2C(=O)OCC2(C)C)CC1 [CBK044234]  81.5%
3. CCNC(=O)N1CCCC(Cc2ccc(F)cc2F)(C(=O)OCC)C1 (stereo not drawn) [CBK306734]  81.9%
4. CC(C)(C)OC(=O)N1CCC[C@@H](C(=O)c2cccs2)C1 [CBK284310]  82.1%
5. O=C(O)C1CCN(C(=O)NCCOc2ccccc2)CC1 [CBK156072]  82.2%
6. COc1ccc2sc(C)[n+](CCC(=O)O)c2c1 [CBK260899B]  83.5%
7. CNC(=O)c1cn2cc(-c3cccs3)n(CC3CC3)c(=O)c2n1 [CBK306838]  84%
8. CCc1cccc(C)c1NC(=O)CN(c1cccc(Cl)c1Cl)S(=O)(=O)c1ccc(C)cc1 [CBK268666]  84.7%
9. O=C(O)c1cc(C=Cc2ccc(OC(F)F)cc2)nc2ccccc12 [CBK297532]  85.3%
10. Cc1ccc(NC(=O)CSc2cnn[nH]2)cc1 [CBK270136]  86.2%
11. CCOC(=O)Cn1nc([N+](=O)[O-])c(Cl)c1C [CBK269605]  86.4%
12. COc1ccc(C(=O)N2C[C@@H]3C[C@H](C2)c2ccc(-c4cccnc4)c(=O)n2C3)cc1 [CBK289182]  86.7%
13. c1ccc2oc(CN3CCC(N4CCCCC4)CC3)cc2c1 [CBK282052]  87.1%
14. O=C(c1ccncc1)N1C[C@H]2CCc3c(n[nH]c3C(F)(F)F)[C@H]2C1 [CBK282110]  87.3%
15. COC(=O)[C@H]1O[C@H](c2ccccc2)[C@@H]2C(=O)N(C)C(=O)[C@@H]21 [CBK009058]  87.6%
16. O=C(NC(c1ccc(Cl)cc1)c1ccsc1)C1CCN(CCc2ccc(F)cc2)CC1 (stereo not drawn) [CBK147976]  88.4%
17. OC[C@H]1CCN(Cc2cc(Cl)ccc2OCCCn2ccnc2)C[C@H]1O [CBK306581]  88.4%
18. CCNC(=S)N1CC[C@@H]2N(C)CC[C@]2(c2ccc(OC)c(OC)c2)CC1 [CBK059113T]  88.5%
19. Cc1nc(CCNC(=O)N(Cc2ccsc2)C2CC2)nc2c1CCCC2 [CBK307674]  88.5%
20. O=C(c1ccc2c(c1)ncn2CCO)N1CCC(c2ccccc2F)C1 (stereo not drawn) [CBK307075]  88.5%
21. O=C(NCc1ccc2c(c1)CCCO2)C1CC2C=CC1C21CC1 (stereo not drawn) [CBK281503]  89.1%
22. Cc1ccccc1-c1noc(CNC(Cn2ccnc2)C(C)C)n1 (stereo not drawn) [CBK307560]  89.1%
23. CN(C)c1ccc(C(=O)N2CC(=O)Nc3ccccc32)cc1 [CBK017839]  89.2%
24. O=C(NCCn1nc2c(cc1=O)CCCCC2)c1ccccc1F [CBK282300]  89.3%
25. N#Cc1ccc(NCC(=O)Nc2ccn(Cc3ccncc3)n2)cc1 [CBK306241]  89.7%
26. CC(=O)NS(=O)(=O)c1ccc(Nc2ccc([N+](=O)[O-])c3nonc23)cc1 [CBK261443]  89.7%
27. COC(=O)N1CC2(CCCCC2NCCC(F)(F)F)c2ccccc21 (stereo not drawn) [CBK083539T]  90%
28. CN1CCN(NC(=O)C2C3C=CC(C3)C2C(=O)O)CC1 (stereo not drawn) [CBK286915]  90.1%
29. CC(=O)Nc1cccc(C(=O)N(Cc2ccccn2)CC2CCCO2)c1 (stereo not drawn) [CBK306867]  90.5%
30. CCc1cc2c(=O)c(-c3cnn(-c4ccccc4)c3)c(C(F)(F)F)oc2c(CN(C)C)c1O [CBK264530]  90.9%
31. CC(=O)Nc1cccc(-n2nnnc2SCc2noc(C)n2)c1 [CBK304599]  90.9%
32. Cn1nc(C(=O)Nc2ccccc2Oc2ccc(F)cc2)ccc1=O [CBK281430]  91%
33. CC[C@@H]1CCCCN1C(=O)c1ccc(Cl)c(C)c1 [CBK084565]  91.6%
34. Cc1cc([N+](=O)[O-])cc2c1NC(=O)C2(O)N1CCOCC1 (stereo not drawn) [CBK262475]  91.7%
35. N=C(N)NS(=O)(=O)c1ccc(N/C=C\C(=O)c2ccncc2)cc1 [CBK264185]  91.8%
36. Cc1occc1-c1nnc(NCc2cnn(C)c2C)o1 [CBK304819]  92.3%
37. CCOc1ccc(C(=O)C2=C(O)C(=O)N(CCN3CCOCC3)C2c2ccc(N(C)C)cc2)c(C)c1 (stereo not drawn) [CBK264650]  92.7%
38. COc1ccc(OC)c(NC(=O)c2cc(=O)[nH]c3ccccc23)c1 [CBK297521]  92.7%
39. Oc1cccc(-c2nccnc2NCc2ccc(Cl)cc2)c1 [CBK037650]  92.8%
40. FC(F)(F)c1ccnc(Sc2nc[nH]n2)n1 [CBK093806]  93.1%
41. O=S(=O)(NCc1nc2ccccc2[nH]1)c1ccccc1 [CBK269460]  94.6%
42. CCn1ncc(Br)c1C(=O)Nc1ccc(Cl)cn1 [CBK265826]  94.8%
43. CCn1cc(C(=O)O)c(=O)c2cc(F)c(N3CCN(S(=O)(=O)c4ccc(C)cc4)CC3)cc21 [CBK265122]  95.1%
44. CSC(C)CCN1CCn2nc(CNc3cnccn3)cc2C1 (stereo not drawn) [CBK307376]  95.5%
45. O=C(O)CCC(=O)NNC(=O)c1ccccc1[N+](=O)[O-] [CBK261079]  95.8%
46. CC(O)CNc1nccnc1-c1ccc(S(C)(=O)=O)cc1 (stereo not drawn) [CBK037669]  96.1%
47. OC(CNCc1cccs1)COc1cccc2c1CCCC2 (stereo not drawn) [CBK002239]  96.1%
48. O=S(=O)(Nc1nnn[nH]1)c1ccccc1Br [CBK062386]  96.3%
49. CCCc1[nH]ncc1C(=O)N1CCN(c2ccnc(N(C)C)n2)CC1 [CBK305406]  96.4%
50. N#Cc1ccc(COc2ccccc2)cc1 [CBK002738]  96.4%
51. CCN(CC)CCN(Cc1ccc2c(c1)OCO2)C(=O)Nc1ccc2[nH]ccc2c1 [CBK159037]  96.7%
52. CCn1ncc(CN2CCCC(c3cc4cccnc4[nH]3)C2)c1C (stereo not drawn) [CBK284700]  96.9%
53. CC(NC(=O)N(CCC#N)C1CCCCC1)c1ccccc1 (stereo not drawn) [CBK156382]  97.2%
54. Cc1onc(-c2ccccc2)c1C(=O)n1cccn1 [CBK287274]  97.5%
55. Cc1[nH]c2ccccc2c1/C=N/c1cccc2c(/N=C/c3c(C)[nH]c4ccccc34)cccc12 [CBK261227]  97.6%
56. CN1CCN(c2cc(-c3cccc(CO)c3)nc3ccnn23)CC1 [CBK037099]  98.1%
57. O=C(O)Cn1cc(I)c(=O)[nH]c1=O [CBK262698]  98.6%
58. COc1ccccc1-c1cnc2[nH]c(=O)n(C3CCCCC3)c2n1 [CBK064203]  98.7%
59. C=Cn1cc(CN2CCCN(Cc3cccc(F)c3)CC2)c(C)n1 [CBK282594]  98.7%
60. Cc1ccc2c(c1)nc(CNC(=O)NCCc1nc(C)no1)n2C [CBK305552]  98.8%
61. NC1CCC(Nc2cncc(-c3ccc(F)c(Cl)c3)n2)CC1 (stereo not drawn) [CBK037893]  99.6%
62. CN1CCc2c(C#N)c(N)n(N)c(=S)c2C1 [CBK264055]  101%
63. COc1ccc(-c2noc(COc3cccc(C(=O)O)c3)n2)c(OC)c1 [CBK298279]  101%
64. COCCN1C(=O)C2(CC(=O)N(C)C2=O)c2ccccc21 (stereo not drawn) [CBK075387]  102%
65. CC(Cc1nc(-c2nccn2C(C)C)cs1)n1cc(Cl)cn1 (stereo not drawn) [CBK304251]  102%
66. Cc1ccc(OCC(=O)NC(Cc2ccccc2)C(=O)O)cc1 (stereo not drawn) [CBK217681]  102%
67. Cc1c(C(=O)NC(C)c2ccncc2)oc2c(F)cccc12 (stereo not drawn) [CBK282105]  103%
68. CCCCSc1nc(N)cc(N2CCOCC(CN(C)C)C2)n1 (stereo not drawn) [CBK306659]  103%
69. COc1ncccc1C(=O)Nc1c(C)noc1C [CBK200307]  103%
70. c1ccc(CN2CC[C@H](Nc3nccnc3-c3cccnc3)C2)cc1 [CBK036978]  104%
71. Cc1ccc(Nc2nc(N)nc(-c3cc4ccccc4o3)n2)cc1 [CBK288222]  105%
72. Cc1ccc(NC(=S)NCCNc2ccccn2)cc1Cl [CBK297544]  105%
73. COCCCN1C(=O)C(O)=C(C(=O)c2ccc(Cl)cc2)C1c1cccc(O)c1 (stereo not drawn) [CBK264892]  105%
74. CC(C)(C)c1ccc(OCc2nnc(Sc3nc4ccc([N+](=O)[O-])cc4s3)n2-c2ccccc2)cc1 [CBK263366]  105%
75. CC(C)c1ccc(-c2cncc(NCc3cccc(Cl)c3)n2)cc1 [CBK065347]  106%
76. CSc1nc2ccc3nc(NC(C)=O)sc3c2s1 [CBK287567]  106%
77. O=C(NC(Cc1ccsc1)c1cccnc1)C1CCOC1 (stereo not drawn) [CBK285116]  106%
78. CN1CCN(c2ccc(C(=O)N3CCC(F)CC3)cc2)CC1 [CBK200265]  109%
79. Cc1ccc(S(=O)(=O)N2CCC(C(=O)NC3(C(=O)O)CCCCC3)CC2)cc1 [CBK295644]  109%
80. CN1CCC(N2CCN(C(=O)Nc3ccc(Cl)cc3)CC2)CC1 [CBK155899]  109%
81. O=C(c1cccnc1N1CCCCC1)N1CCCCC1 [CBK025882]  109%
82. CC(SCCc1ccccn1)C(=O)O (stereo not drawn) [CBK026572]  109%
83. O=C(Nc1ccc([C@@H](O)[C@H]2COCC(=O)N2Cc2cccnc2)cc1)c1ccccc1 [CBK289319]  111%
84. O=C(O)c1ccc(NC(=O)c2cc(-n3cnnc3)ccc2Cl)cc1 [CBK286613]  111%
85. COC(=O)CC[C@H]1CNC(=O)[C@@H]2[C@@H](CCN2S(C)(=O)=O)N1C [CBK289019]  112%
86. OC[C@H]1OCC[C@H]1O [CBK201263]  113%
87. O=C(CSc1ccccc1)Nc1cccc(Oc2ccc3c(c2)C(=O)NC3=O)c1 [CBK266500]  113%
88. O=C(Nc1ccc(C(=O)OCC(=O)c2cccc3ccccc23)cc1)c1ccccc1 [CBK265518]  115%

Same assay, conditions: human, hela cells, % viability, bulk resorufin, single well

In order of rising viability at 28.5 h, 10 µM:
1. O=C(O)c1nn(Cc2ccc(Cl)c(Cl)c2)c2ccccc12 [CBK088455]  91.2%
2. O=C(Nc1ccc(NC(=O)c2cccc([N+](=O)[O-])c2)c(Cl)c1)c1cccc([N+](=O)[O-])c1 [CBK261196]  105%
